Measurements published in patent publication US12043632B2, “6-heteroaryloxy benzimidazoles and azabenzimidazoles as JAK2 inhibitors” (Ajax Therapeutics, Inc., priority 2020, dated 2024).

target: T1, JAK2 (JH1domain-catalytic, Y1007F,Y1008F) kinase (Homo sapiens, UniProt O60674, Y1007F/Y1008F); test: JAK2 JH1 Domain Binding Assay; details: qPCR readout
T1 construct: JAK2 (JH1domain-catalytic, Y1007F,Y1008F) kinase was expressed as N-terminal fusion; made in house; host or cells: transiently transfected HEK293 cells
T1 sequence (O60674 849-1124 Y1007F/Y1008F limits assumed): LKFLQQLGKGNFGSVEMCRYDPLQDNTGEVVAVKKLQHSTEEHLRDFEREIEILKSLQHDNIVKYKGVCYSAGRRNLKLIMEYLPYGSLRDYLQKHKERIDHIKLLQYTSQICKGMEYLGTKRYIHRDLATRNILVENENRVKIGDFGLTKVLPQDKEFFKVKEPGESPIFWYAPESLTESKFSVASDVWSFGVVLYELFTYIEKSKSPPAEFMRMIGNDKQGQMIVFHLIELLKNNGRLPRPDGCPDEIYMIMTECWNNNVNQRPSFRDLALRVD

Kd, 10 to 50 nM:
CNc1ccc2c(Oc3cnc4nc(Nc5cc(C(F)(F)F)cn(C)c5=O)n(C)c4c3)cnn2c1 [Example I-320, 1-methyl-3-((1-methyl-6-((6-(methylamino)pyrazolo[1,5-a]pyridin-3-yl)oxy)-1H-imidazo[4,5-b]pyridin-2-yl)amino)-5-(trifluoromethyl)pyridin-2(1H)-one]
CNc1cn2ncc(Oc3cnc4nc(Nc5cc(CN6CC7(COC7)C6)cc(C(F)(F)F)c5)n(C)c4c3Cl)c2cn1 [Example I-356, N-(3-((2-oxa-6-azaspiro[3.3]heptan-6-yl)methyl)-5-(trifluoromethyl)phenyl)-7-chloro-1-methyl-6-((6-(methylamino)pyrazolo[1,5-a]pyrazin-3-yl)oxy)-1H-imidazo[4,5-b]pyridin-2-amine]
Cn1cc(C(F)(F)F)cc(Nc2nc3ncc(Oc4cnc5[nH]nc(C(F)(F)F)c5c4)c(C#N)c3n2C)c1=O [Example I-333, 1-methyl-2-((1-methyl-2-oxo-5-(trifluoromethyl)-1,2-dihydropyridin-3-yl)amino)-6-((3-(trifluoromethyl)-1H-pyrazolo[3,4-b]pyridin-5-yl)oxy)-1H-imidazo[4,5-b]pyridine-7-carbonitrile]
Cn1cc(C(F)(F)F)cc(Nc2nc3ncc(Oc4cnc5[nH]c(C6CC6)cc5c4)c(Cl)c3n2C)c1=O [Example I-294, 3-((7-chloro-6-((2-cyclopropyl-1H-pyrrolo[2,3-b]pyridin-5-yl)oxy)-1-methyl-1H-imidazo[4,5-b]pyridin-2-yl)amino)-1-methyl-5-(trifluoromethyl)pyridin-2(1H)-one]
CNc1nccn2ncc(Oc3cnc4nc(Nc5ccc(CN6CC(OC)C6)c(C(F)(F)F)c5)n(C)c4c3Cl)c12 [Example I-190, 7-chloro-N-(4-((3-methoxyazetidin-1-yl)methyl)-3-(trifluoromethyl)phenyl)-1-methyl-6-((4-(methylamino)pyrazolo[1,5-a]pyrazin-3-yl)oxy)-1H-imidazo[4,5-b]pyridin-2-amine]
COc1c(Oc2cnn3ccncc23)cnc2nc(Nc3cc(C4CC4)cn(CC(C)(C)OC)c3=O)n(C)c12 [Example I-106, 5-cyclopropyl-3-((7-methoxy-1-methyl-6-(pyrazolo[1,5-a]pyrazin-3-yloxy)-1H-imidazo[4,5-b]pyridin-2-yl)amino)-1-(2-methoxy-2-methylpropyl)pyridin-2(1H)-one]
Cn1c(Nc2cc(C(C)(C)C)n(C3CC4(COC4)C3)n2)nc2ncc(Oc3cnn4ccncc34)c(C#N)c21 [Example I-187, 2-((5-(tert-butyl)-1-(2-oxaspiro[3.3]heptan-6-yl)-1H-pyrazol-3-yl)amino)-1-methyl-6-(pyrazolo[1,5-a]pyrazin-3-yloxy)-1H-imidazo[4,5-b]pyridine-7-carbonitrile]
CN1CC[C@@H](n2nc(Nc3nc4ncc(Oc5cnc6scnc6c5)c(C(F)F)c4n3C)cc2C(C)(C)C)C1 [Example I-40, (R)—N-(5-(tert-butyl)-1-(1-methylpyrrolidin-3-yl)-1H-pyrazol-3-yl)-7-(difluoromethyl)-1-methyl-6-(thiazolo[5,4-b]pyridin-6-yloxy)-1H-imidazo[4,5-b]pyridin-2-amine]

Kd, < 10 nM:
CNc1nccn2ncc(Oc3cnc4nc(Nc5cc(CN(C)C)cc(C(F)(F)F)c5)n(C)c4c3Cl)c12 [Example I-255, 7-chloro-N-(3-((dimethylamino)methyl)-5-(trifluoromethyl)phenyl)-1-methyl-6-((4-(methylamino)pyrazolo[1,5-a]pyrazin-3-yl)oxy)-1H-imidazo[4,5-b]pyridin-2-amine]
COc1c(Oc2cnn3ccncc23)cnc2nc(Nc3cc(C4CC4)cn(C4CCOCC4)c3=O)n(C)c12 [Example I-67, 5-cyclopropyl-3-((7-methoxy-1-methyl-6-(pyrazolo[1,5-a]pyrazin-3-yloxy)-1H-imidazo[4,5-b]pyridin-2-yl)amino)-1-(tetrahydro-2H-pyran-4-yl)pyridin-2(1H)-one]
CNc1nccn2ncc(Oc3cnc4nc(Nc5cc(C(F)(F)F)cn(-c6cnn(C)c6)c5=O)n(C)c4c3Cl)c12 [Example I-171, 3-((7-chloro-1-methyl-6-((4-(methylamino)pyrazolo[1,5-a]pyrazin-3-yl)oxy)-1H-imidazo[4,5-b]pyridin-2-yl)amino)-1-(1-methyl-1H-pyrazol-4-yl)-5-(trifluoromethyl)pyridin-2(1H)-one]
CC(=O)N1CC2(CC(n3nc(Nc4nc5ncc(Oc6cnn7ccncc67)c(Cl)c5n4C)cc3C(F)(F)F)C2)C1 [Example I-156, 1-(6-(3-((7-chloro-1-methyl-6-(pyrazolo[1,5-a]pyrazin-3-yloxy)-1H-imidazo[4,5-b]pyridin-2-yl)amino)-5-(trifluoromethyl)-1H-pyrazol-1-yl)-2-azaspiro[3.3]heptan-2-yl)ethan-1-one]
COCCOc1ccc2c(Oc3cnc4nc(Nc5cc(C(F)(F)F)cn(C)c5=O)n(C)c4c3Cl)cnn2c1 [Example I-355, 3-((7-chloro-6-((6-(2-methoxyethoxy)pyrazolo[1,5-a]pyridin-3-yl)oxy)-1-methyl-1H-imidazo[4,5-b]pyridin-2-yl)amino)-1-methyl-5-(trifluoromethyl)pyridin-2(1H)-one]
Cc1c[nH]c2ncc(Oc3cnc4nc(Nc5cc(C(F)(F)F)cn(C)c5=O)n(C)c4c3C#N)cc12 [Example I-329, 1-methyl-6-((3-methyl-1H-pyrrolo[2,3-b]pyridin-5-yl)oxy)-2-((1-methyl-2-oxo-5-(trifluoromethyl)-1,2-dihydropyridin-3-yl)amino)-1H-imidazo[4,5-b]pyridine-7-carbonitrile]
Cn1cc(C(F)(F)F)cc(Nc2nc3ncc(Oc4cnn5ccc(N6CCOCC6)cc45)c(C#N)c3n2C)c1=O [Example I-281, 1-methyl-2-((1-methyl-2-oxo-5-(trifluoromethyl)-1,2-dihydropyridin-3-yl)amino)-6-((5-morpholinopyrazolo[1,5-a]pyridin-3-yl)oxy)-1H-imidazo[4,5-b]pyridine-7-carbonitrile]
Cn1cc(C(F)(F)F)cc(Nc2nc3ncc(Oc4cnc5[nH]ccc5c4F)c(C#N)c3n2C)c1=O [Example I-335, 6-((4-fluoro-1H-pyrrolo[2,3-b]pyridin-5-yl)oxy)-1-methyl-2-((1-methyl-2-oxo-5-(trifluoromethyl)-1,2-dihydropyridin-3-yl)amino)-1H-imidazo[4,5-b]pyridine-7-carbonitrile]
CNc1nccn2ncc(Oc3cnc4nc(Nc5cc(C(F)(F)F)cn([C@H]6C[C@@H](O)C6)c5=O)n(C)c4c3Cl)c12 [Example I-214, 3-((7-chloro-1-methyl-6-((4-(methylamino)pyrazolo[1,5-a]pyrazin-3-yl)oxy)-1H-imidazo[4,5-b]pyridin-2-yl)amino)-1-((1s,3s)-3-hydroxycyclobutyl)-5-(trifluoromethyl)pyridin-2(1H)-one]
Cn1c(Nc2cc(C3CC3)cn(CC#N)c2=O)nc2ncc(Oc3cnn4ccncc34)c(Cl)c21 [Example I-132, 2-(3-((7-chloro-1-methyl-6-(pyrazolo[1,5-a]pyrazin-3-yloxy)-1H-imidazo[4,5-b]pyridin-2-yl)amino)-5-cyclopropyl-2-oxopyridin-1(2H)-yl)acetonitrile]
COc1ccc2c(Oc3cnc4nc(Nc5cc(C(F)(F)F)cn(C)c5=O)n(C)c4c3C#N)cnn2c1 [Example I-291, 6-((6-methoxypyrazolo[1,5-a]pyridin-3-yl)oxy)-1-methyl-2-((1-methyl-2-oxo-5-(trifluoromethyl)-1,2-dihydropyridin-3-yl)amino)-1H-imidazo[4,5-b]pyridine-7-carbonitrile]
Cn1cc(C(F)(F)F)cc(Nc2nc3ncc(Oc4cnn5ccc(N6CCOCC6)cc45)c(Cl)c3n2C)c1=O [Example I-166, 3-((7-chloro-1-methyl-6-((5-morpholinopyrazolo[1,5-a]pyridin-3-yl)oxy)-1H-imidazo[4,5-b]pyridin-2-yl)amino)-1-methyl-5-(trifluoromethyl)pyridin-2(1H)-one]
CN1CC(Oc2cc(Nc3nc4ncc(Oc5cnn6ccncc56)c(Cl)c4n3C)cc(C(F)(F)F)c2)C1 [Example I-218, 7-chloro-1-methyl-N-(3-((1-methylazetidin-3-yl)oxy)-5-(trifluoromethyl)phenyl)-6-(pyrazolo[1,5-a]pyrazin-3-yloxy)-1H-imidazo[4,5-b]pyridin-2-amine]
COc1n[nH]c2ncc(Oc3cnc4nc(Nc5cc6n(n5)CCCC6(F)F)n(C)c4c3C#N)cc12 [Example I-378, 2-((4,4-difluoro-4,5,6,7-tetrahydropyrazolo[1,5-a]pyridin-2-yl)amino)-6-((3-methoxy-1H-pyrazolo[3,4-b]pyridin-5-yl)oxy)-1-methyl-1H-imidazo[4,5-b]pyridine-7-carbonitrile]
CC(=O)N1CC(n2nc(Nc3nc4ncc(Oc5cnn6ccncc56)c(Cl)c4n3C)cc2C(C)(C)C)C1 [Example I-94, 1-(3-(5-(tert-butyl)-3-((7-chloro-1-methyl-6-(pyrazolo[1,5-a]pyrazin-3-yloxy)-1H-imidazo[4,5-b]pyridin-2-yl)amino)-1H-pyrazol-1-yl)azetidin-1-yl)ethan-1-one]

Kd, 50 to 1000 nM:
CNc1nccn2ncc(Oc3cnc4nc(Nc5cc(C(F)(F)F)c(C#N)n(C)c5=O)n(C)c4c3Cl)c12 [Example I-233, 5-((7-chloro-1-methyl-6-((4-(methylamino)pyrazolo[1,5-a]pyrazin-3-yl)oxy)-1H-imidazo[4,5-b]pyridin-2-yl)amino)-1-methyl-6-oxo-3-(trifluoromethyl)-1,6-dihydropyridine-2-carbonitrile]
CNc1cn2ncc(Oc3cnc4nc(Nc5ccc(CN6CC[C@H](OC)C6)c(C(F)(F)F)c5)n(C)c4c3Cl)c2cn1 [Example I-360, (S)-7-chloro-N-(4-((3-methoxypyrrolidin-1-yl)methyl)-3-(trifluoromethyl)phenyl)-1-methyl-6-((6-(methylamino)pyrazolo[1,5-a]pyrazin-3-yl)oxy)-1H-imidazo[4,5-b]pyridin-2-amine]
